Reference: patent publication US5534521A, “Benzimidazole compounds” (G. D. Searle & Co., priority 1994, dated 1996)

What was measured:
5-HT3 = assay: Bezold-Jarisch Reflex (5-HT-induced bradycardia in anesthetized mice); format: in vivo; conditions: i.p., 30 min before 5-HT (0.25 mg/kg i.v.), >50 percent reduction in bradycardic response vs vehicle
Protocol: (§1) 5-HT4 agonist activity was determined in the in vitro rat tunica muscularis mucosae (TMM) assay. (Baxter et al., Naunyn Schmied Arch. Pharmacol, 1991, 343, 439). The 5-HT4 agonist or antagonist activity and/or 5-HT3 antagonist activity of the compounds of the invention herein, can be determined by the assays as described herein, without undue experimention.
The compound to be evaluated was administered i.p. (mg/kg) to a group of 3 mice.
This method has been described by Saxena, P. R. and Lawang, A., Arch. Int. Pharmacodyn., 277:235-252, 1985.

5-HT3 receptor = target: T1, 5-HT3 receptor (Rattus norvegicus, UniProt P35563); assay: Serotonin (5-HT3) radioligand receptor binding, [3H]-GR65630, rat brain cortex membranes
T1 construct: Brain cortices were obtained from male rats and a membrane fraction prepared by standard techniques; from tissue; host or cells: rat brain cortex membranes (male rats)
T1 sequence (P35563 24-483): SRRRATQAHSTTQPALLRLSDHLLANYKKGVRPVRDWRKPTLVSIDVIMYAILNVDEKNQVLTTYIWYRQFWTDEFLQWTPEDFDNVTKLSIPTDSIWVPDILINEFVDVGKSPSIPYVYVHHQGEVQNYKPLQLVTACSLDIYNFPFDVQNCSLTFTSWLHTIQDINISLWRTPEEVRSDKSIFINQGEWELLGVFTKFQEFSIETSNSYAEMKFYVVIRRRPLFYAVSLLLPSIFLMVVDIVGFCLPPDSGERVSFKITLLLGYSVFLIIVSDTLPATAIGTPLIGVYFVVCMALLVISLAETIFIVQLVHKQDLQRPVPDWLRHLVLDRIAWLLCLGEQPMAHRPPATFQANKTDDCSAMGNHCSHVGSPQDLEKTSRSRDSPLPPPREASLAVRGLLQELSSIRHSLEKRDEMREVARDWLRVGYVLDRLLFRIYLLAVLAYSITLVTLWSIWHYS
Protocol: as §1
GR65630 binds to the 5-HT3 receptor. Brain cortices were obtained from male rats and a membrane fraction prepared by standard techniques. 0.04 mg of membrane prep was incubated with 0.2 nM […] for 60 minutes at 22° C. […] Kilpatrick G. J., Jones B. J. and Tyers M. B. Identification and distribution of 5-HT3 receptors in rat brain using radioligand binding assay. Nature, 330: 746-748, 1987.

5-HT4 receptor = target: T2, 5-HT4 receptor (Rattus norvegicus, UniProt Q62758); assay: cell-based; conditions: carbachol (3 μM) contracted rat tunica muscularis mucosae, 37° C., cumulative addition, tissues from 5 rats; read-out: 5-HT4 Agonism (Rat TMM) In Vitro Assay: EC50 Values
T2 construct: One 2 cm segment of intrathoracic esophagus proximal to the diaphragm was removed from male rats; from tissue; host or cells: rat intrathoracic esophagus, inner tunica muscularis mucosae (male rats)
Protocol: as §1
Agonist activity was determined utilizing relaxation of carbachol-contracted rat tunica muscularis mucosae. One 2 cm segment of intrathoracic esophagus proximal to the diaphragm was removed from male rats, weighing approximately 300 gm, and the outer muscle layers removed. The inner tunica muscularis mucosa was mounted under 0.2-0.3 g of tension in a tissue bath containing oxygenated Tyrode's solution at 37° C. […] Following a 30 min equilibrium period, tissues were isometrically contracted with carbachol (3 μM) to obtain a tonic contraction. A stable plateau was obtained within 20 min when test compound was added cumulatively to relax the muscle strip. EC50 values were obtained for each agonist in tissues from 5 rats.

T2 sequence (Q62758 whole entry): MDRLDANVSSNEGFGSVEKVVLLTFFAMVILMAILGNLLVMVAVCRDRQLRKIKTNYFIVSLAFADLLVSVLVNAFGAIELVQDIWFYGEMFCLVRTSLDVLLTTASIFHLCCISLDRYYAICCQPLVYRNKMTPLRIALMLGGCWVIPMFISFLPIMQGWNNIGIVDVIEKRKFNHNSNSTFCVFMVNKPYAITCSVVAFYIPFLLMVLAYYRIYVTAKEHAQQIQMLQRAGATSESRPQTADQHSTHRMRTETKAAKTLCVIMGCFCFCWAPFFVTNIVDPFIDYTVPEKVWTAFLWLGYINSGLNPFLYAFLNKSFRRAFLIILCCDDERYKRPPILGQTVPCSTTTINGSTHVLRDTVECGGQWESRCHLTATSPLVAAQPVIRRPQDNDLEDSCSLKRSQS

CN1[C@@H]2C[C@@H](OC(=O)[C@H](CO)c3ccccc3)C[C@H]1[C@@H]1O[C@@H]12 [scopolamine]
Minimum Effective Dose (MED) (5-HT3): 2.5 mg/kg

CCN(CC)CCNC(=O)c1cc(Cl)c(N)cc1OC [metoclopramide]
Minimum Effective Dose (MED) (5-HT3): 5 mg/kg

CC(C)n1c(=O)n(C(=O)NC2C3CC4CC2CN(C4)C3)c2cc(Cl)ccc21 (stereo not drawn) [Example 22B, N-(1-azatricyclo[3.3.1.1^3,7]decan-4-yl)-6-chloro-2,3-dihydro-3-(1-methylethyl)-2-oxo-1H-benzimidazole-1-carboxamide]
Ki (5-HT3 receptor): 4.9 nM

CC(C)n1c(=O)n(C(=O)NC[C@@H]2CCN3CCC[C@@H]23)c2ccccc21 (relative stereo) [Example 23, cis-N-[(hexahydro-1H-pyrrolizin-1-yl)methyl]-2,3-dihydro-3-(1-methylethyl)-2-oxo-1H-benzimidazole-1-carboxamide]
EC50 (5-HT4 receptor): 374 nM | Minimum Effective Dose (MED) (5-HT3): 1 mg/kg | Ki (5-HT3 receptor): 75 nM

O=c1[nH]c2ccccc2n1CCCN1CCC(n2c(=O)[nH]c3cc(Cl)ccc32)CC1 [domperidone]
Minimum Effective Dose (MED) (5-HT3): > 10 mg/kg

CC(C)n1c(=O)n(C(=O)NCCC23CCCN2CCC3)c2ccccc21 [Example 13, N-[2-(hexahydro-7aH-pyrrolizin-7a-yl)ethyl]-2,3-dihydro-3-(1-methylethyl)-2-oxo-1H-benzimidazole-1-carboxamide]
Minimum Effective Dose (MED) (5-HT3): 10 mg/kg

Cc1nc[nH]c1CCC(=O)c1cn(C)c2ccccc12 [GR65630]
% Specific Binding (5-HT3 receptor; radioligand, non-specific binding in the presence of 1 uM ICS 205-930): 70%

CC(C)n1c(=O)n(C(=O)NC2C3CC4CC2CN(C4)C3)c2ccc(Cl)cc21 (stereo not drawn) [Example 17, N-(1-azatricyclo[3.3.1.1^3,7]decan-4-yl)-5-chloro-2,3-dihydro-3-(1-methylethyl)-2-oxo-1H-benzimidazole-1-carboxamide]
inhibition at 10 µM (5-HT3 receptor; 1 h, read-out: Effect of Compounds on [H]-GR65630 Bound (0.2 nM), % @ 10,000 nM): 41%

CN1C2CCCC1CC(NC(=O)c1nn(C)c3ccccc13)C2 (stereo not drawn) [BRL-43694]
Minimum Effective Dose (MED) (5-HT3): 0.05 mg/kg

CCC(CO)NC(=O)C1C=C2c3cccc4c3c(cn4C)CC2N(C)C1 (stereo not drawn) [methylsergide]
Minimum Effective Dose (MED) (5-HT3): > 10 mg/kg
